Assay results: publication PMC5508574 (Nature biotechnology, 2016)

What was measured:
NCI-H3122 cell line = test: PRISM compound assay, mixture of 25 barcoded lung adenocarcinoma cell lines; format: cell-based, human; conditions: 0–10 μM, 5 days, in mixture
NCI-H2228 = test: as above; format: cell-based, human; conditions: 0–10 μM, 5 days, in mixture
[1] = test system: BRAF-mutant vs BRAF wild-type cell lines; test: PRISM, 100 barcoded cell lines in 4 pools of 25, BRAF genotype comparison; conditions: AUC of viability, 100 cell lines, PRISM (and Nuclei, ATP)
[2] = test system: 4 EGFR-mutant cell lines in the pool; test: PRISM compound assay, mixture of 25 barcoded lung adenocarcinoma cell lines; format: cell-based, human; conditions: 0–10 μM, 5 days, viability relative to DMSO
[3] = test system: 25 barcoded lung adenocarcinoma cell lines in mixture; test: as above; format: cell-based, human; conditions: 0–10 μg/ml, 5 days, viability relative to DMSO

COc1cc(N2CCC(N3CCN(C)CC3)CC2)ccc1Nc1ncc(Cl)c(Nc2ccccc2S(=O)(=O)C(C)C)n1 [NVP-TAE-684]
Sensitivity of NCI-H3122 (EML4-ALK translocation) (NCI-H3122 cell line): sensitive
Sensitivity of NCI-H2228 (different EML4-ALK translocation) (NCI-H2228): intrinsic resistance

CCCS(=O)(=O)Nc1ccc(F)c(C(=O)c2c[nH]c3ncc(Cl)cc23)c1F [PLX4720]
Differential sensitivity of BRAF-mutant vs BRAF wild-type cell lines [1]: hypersensitivity

C#Cc1cccc(Nc2ncnc3cc(OCCOC)c(OCCOC)cc23)c1 [erlotinib]
Killing of EGFR-mutant cell lines in the pool [2]: dose-dependent killing

COc1ccc(C[C@H](N)C(=O)N[C@H]2[C@@H](O)[C@H](n3cnc4c(N(C)C)ncnc43)O[C@@H]2CO)cc1 [puromycin]
Pattern of cell killing across the pool [3]: uniform killing across the pool

CNC(=O)c1cc(Oc2ccc(NC(=O)Nc3ccc(Cl)c(C(F)(F)F)c3)cc2)ccn1 [sorafenib]
Differential sensitivity of BRAF-mutant vs BRAF wild-type cell lines [1]: No significant differential sensitivity
